Results from ChEMBL document CHEMBL4828717, “Synthetic cajaninstilbene acid derivatives eradicate methicillin-resistant Staphylococcus aureus persisters and biofilms” (Eur J Med Chem, 2021).

Columns and labels:
Staphylococcus aureus [1] = test: Antibacterial activity against Staphylococcus aureus ATCC 25923 assessed as reduction in microbial growth after 16 to 18 hrs by microbroth dilution method; format: functional; details: time 16-18 hrs
Staphylococcus aureus [2] = test: Antibacterial activity against methicillin resistant Staphylococcus aureus ATCC 43300 assessed as reduction in microbial growth after 16 to 18 hrs by microbroth dilution method; format: functional; details: time 16-18 hrs
Staphylococcus aureus [3] = test: Antibacterial activity against methicillin resistant Staphylococcus aureus ATCC 62202 assessed as reduction in microbial growth after 16 to 18 hrs by microbroth dilution method; format: functional; details: time 16-18 hrs
Staphylococcus aureus [4] = test: Antibacterial activity against methicillin resistant Staphylococcus aureus ATCC 52056 assessed as reduction in microbial growth after 16 to 18 hrs by microbroth dilution method; format: functional; details: time 16-18 hrs
Staphylococcus aureus [5] = test: Antibacterial activity against methicillin resistant Staphylococcus aureus ATCC513045 assessed as reduction in microbial growth after 16 to 18 hrs by microbroth dilution method; format: functional; details: time 16-18 hrs
Staphylococcus aureus [6] = test: Antibacterial activity against methicillin resistant Staphylococcus aureus ATCC515992 assessed as reduction in microbial growth after 16 to 18 hrs by microbroth dilution method; format: functional; details: time 16-18 hrs
Staphylococcus aureus [7] = test: Antibacterial activity against methicillin resistant Staphylococcus aureus ATCC49800 assessed as reduction in microbial growth after 16 to 18 hrs by microbroth dilution method; format: functional; details: time 16-18 hrs
Staphylococcus aureus [8] = test: Antibacterial activity against methicillin resistant Staphylococcus aureus ATCC49025 assessed as reduction in microbial growth after 16 to 18 hrs by microbroth dilution method; format: functional; details: time 16-18 hrs
Staphylococcus aureus [9] = test: Antibacterial activity against methicillin resistant Staphylococcus aureus ATCC48073 assessed as reduction in microbial growth after 16 to 18 hrs by microbroth dilution method; format: functional; details: time 16-18 hrs
Staphylococcus aureus [10] = test: Antibacterial activity against methicillin resistant Staphylococcus aureus ATCC48966 assessed as reduction in microbial growth after 16 to 18 hrs by microbroth dilution method; format: functional; details: time 16-18 hrs
Staphylococcus aureus [11] = test: Antibacterial activity against methicillin resistant Staphylococcus aureus ATCC49008 assessed as reduction in microbial growth after 16 to 18 hrs by microbroth dilution method; format: functional; details: time 16-18 hrs
Staphylococcus aureus [12] = test: Antibacterial activity against methicillin resistant Staphylococcus aureus ATCC48706 assessed as reduction in microbial growth after 16 to 18 hrs by microbroth dilution method; format: functional; details: time 16-18 hrs
Escherichia coli = test: Antibacterial activity against Escherichia coli ATCC25922 assessed as reduction in microbial growth after 16 to 18 hrs by microbroth dilution method; format: functional; details: ATCC 25922, time 16-18 hrs
Pseudomonas aeruginosa = test: Antibacterial activity against Pseudomonas aeruginosa ATCC27853 assessed as reduction in microbial growth after 16 to 18 hrs by microbroth dilution method; format: functional; details: time 16-18 hrs
Enterococcus faecalis = test: Antibacterial activity against Enterococcus faecalis ATCC29212 assessed as reduction in microbial growth after 16 to 18 hrs by microbroth dilution method; format: functional; details: ATCC 29212, time 16-18 hrs
RAW264.7 = test: Cytotoxicity against mouse RAW264.7 cells assessed as cell viability at 10 ug/ml measured after 24 hrs by MTT assay; format: cell-based; details: raw264.7, 24 h, dose 10 µg/ml
L02 = test: Cytotoxicity against human L02 cells assessed as cell viability at 10 ug/ml measured after 24 hrs by MTT assay; format: cell-based; details: l02, 24 h, dose 10 µg/ml

Row | SMILES | MIC (Staphylococcus aureus [1]) | MIC (Staphylococcus aureus [2]) | MIC (Staphylococcus aureus [3]) | MIC (Staphylococcus aureus [4]) | MIC (Staphylococcus aureus [5]) | MIC (Staphylococcus aureus [6]) | MIC (Staphylococcus aureus [7]) | MIC (Staphylococcus aureus [8]) | MIC (Staphylococcus aureus [9]) | MIC (Staphylococcus aureus [10]) | MIC (Staphylococcus aureus [11]) | MIC (Staphylococcus aureus [12]) | MIC (Escherichia coli) | MIC (Pseudomonas aeruginosa) | MIC (Enterococcus faecalis) | Activity (RAW264.7) | Activity (L02)
1 | CC(C)=CCc1c(OCc2ccccc2)cc(/C=C/c2ccc(C(F)(F)F)cc2)c(C(=O)O)c1O | 4 µg/mL | 2 µg/mL | 2 µg/mL | 2 µg/mL | 2 µg/mL | 2 µg/mL | 4 µg/mL | 4 µg/mL | 4 µg/mL | 4 µg/mL | 4 µg/mL | 4 µg/mL | > 32 µg/mL | > 32 µg/mL | > 32 µg/mL | Toxic | Toxic
2 | CC(C)=CCc1c(OC2CCCCC2)cc(/C=C/c2ccc(C(F)(F)F)cc2)c(C(=O)O)c1O | 2 µg/mL | 1 µg/mL | 2 µg/mL | 2 µg/mL | 2 µg/mL | 2 µg/mL | 4 µg/mL | 4 µg/mL | 4 µg/mL | 4 µg/mL | 4 µg/mL | 4 µg/mL | > 32 µg/mL | > 32 µg/mL | > 32 µg/mL | Toxic | Toxic
3 | CC(C)=CCc1c(OCC(F)(F)F)cc(/C=C/c2ccc(C(F)(F)F)cc2)c(C(=O)O)c1O | 2 µg/mL | 2 µg/mL | 2 µg/mL | 2 µg/mL | 2 µg/mL | 2 µg/mL | 2 µg/mL | 2 µg/mL | 2 µg/mL | 2 µg/mL | 2 µg/mL | 2 µg/mL | > 32 µg/mL | > 32 µg/mL | > 32 µg/mL | Toxic | Toxic
4 | CC(C)=CCc1c(OC2CCC2)cc(/C=C/c2ccc(C(F)(F)F)cc2)c(C(=O)O)c1O | 2 µg/mL | 1 µg/mL | 1 µg/mL | 1 µg/mL | 1 µg/mL | 2 µg/mL | 2 µg/mL | 1 µg/mL | 2 µg/mL | 1 µg/mL | 1 µg/mL | 1 µg/mL | > 32 µg/mL | > 32 µg/mL | > 32 µg/mL | Toxic | Toxic
5 | CC(C)=CCc1c(OCCC(F)(F)F)cc(/C=C/c2ccc(F)cc2)c(C(=O)O)c1O | 4 µg/mL | 4 µg/mL | 4 µg/mL | 4 µg/mL | 2 µg/mL | 4 µg/mL | 4 µg/mL | 4 µg/mL | 4 µg/mL | 4 µg/mL | 4 µg/mL | 4 µg/mL | > 32 µg/mL | > 32 µg/mL | > 32 µg/mL | Toxic | Toxic
6 | CCCC(CC)Oc1cc(/C=C/c2ccc(F)cc2)c(C(=O)O)c(O)c1CC=C(C)C (configuration not stated) | 2 µg/mL | 1 µg/mL | 2 µg/mL | 2 µg/mL | 2 µg/mL | 2 µg/mL | 2 µg/mL | 2 µg/mL | 4 µg/mL | 2 µg/mL | 2 µg/mL | 4 µg/mL | > 32 µg/mL | > 32 µg/mL | > 32 µg/mL | Toxic | Toxic
7 | CC(C)=CCc1c(OCC2CC2)cc(/C=C/c2ccc(F)cc2)c(C(=O)O)c1O | 2 µg/mL | 2 µg/mL | 4 µg/mL | 2 µg/mL | 2 µg/mL | 2 µg/mL | 2 µg/mL | 2 µg/mL | 2 µg/mL | 2 µg/mL | 2 µg/mL | 2 µg/mL | > 32 µg/mL | > 32 µg/mL | > 32 µg/mL | Toxic | Toxic
8 | CC(C)=CCc1c(OCCCCF)cc(/C=C/c2ccc(F)cc2)c(C(=O)O)c1O | 4 µg/mL | 4 µg/mL | 4 µg/mL | 4 µg/mL | 4 µg/mL | 4 µg/mL | 4 µg/mL | 4 µg/mL | 4 µg/mL | 4 µg/mL | 4 µg/mL | 4 µg/mL | > 32 µg/mL | > 32 µg/mL | > 32 µg/mL | Toxic | Toxic
9 | CC(C)=CCc1c(OCCC(F)(F)F)cc(/C=C/c2ccc(C(F)(F)F)cc2)c(C(=O)O)c1O | 2 µg/mL | 2 µg/mL | 2 µg/mL | 2 µg/mL | 2 µg/mL | 2 µg/mL | 4 µg/mL | 4 µg/mL | 4 µg/mL | 4 µg/mL | 4 µg/mL | 4 µg/mL | > 32 µg/mL | > 32 µg/mL | > 32 µg/mL | Toxic | Toxic
10 | CC(C)=CCc1c(OC(C)C)cc(/C=C/c2ccc(C(F)(F)F)cc2)c(C(=O)O)c1O | 2 µg/mL | 1 µg/mL | 2 µg/mL | 2 µg/mL | 2 µg/mL | 2 µg/mL | 2 µg/mL | 2 µg/mL | 2 µg/mL | 2 µg/mL | 2 µg/mL | 2 µg/mL | > 32 µg/mL | > 32 µg/mL | > 32 µg/mL | Toxic | Toxic
11 | CC(C)=CCc1c(OCc2ccccc2)cc(/C=C/c2ccc(F)cc2)c(C(=O)O)c1O | 4 µg/mL | 32 µg/mL | 4 µg/mL | 4 µg/mL | 4 µg/mL | 4 µg/mL | 4 µg/mL | 4 µg/mL | 4 µg/mL | 4 µg/mL | 4 µg/mL | 4 µg/mL | > 32 µg/mL | > 32 µg/mL | > 32 µg/mL | Toxic | Toxic
12 | CC(C)=CCc1c(OC2CCCCCC2)cc(/C=C/c2ccc(C(F)(F)F)cc2)c(C(=O)O)c1O | 4 µg/mL | 1 µg/mL | 2 µg/mL | 1 µg/mL | 2 µg/mL | 4 µg/mL | 4 µg/mL | 4 µg/mL | 4 µg/mL | 4 µg/mL | 4 µg/mL | 4 µg/mL | > 32 µg/mL | > 32 µg/mL | > 32 µg/mL | Toxic | Toxic
13 | CCOc1cc(/C=C/c2ccc(C(F)(F)F)cc2)c(C(=O)O)c(O)c1CC=C(C)C | 2 µg/mL | 1 µg/mL | 1 µg/mL | 1 µg/mL | 2 µg/mL | 2 µg/mL | 2 µg/mL | 2 µg/mL | 2 µg/mL | 2 µg/mL | 2 µg/mL | 2 µg/mL | > 32 µg/mL | > 32 µg/mL | > 32 µg/mL | Toxic | Toxic
14 | CC(C)=CCc1c(OCCF)cc(/C=C/c2ccc(C(F)(F)F)cc2)c(C(=O)O)c1O | 4 µg/mL | 2 µg/mL | 4 µg/mL | 2 µg/mL | 4 µg/mL | 4 µg/mL | 8 µg/mL | 8 µg/mL | 8 µg/mL | 8 µg/mL | 8 µg/mL | 8 µg/mL | > 32 µg/mL | > 32 µg/mL | > 32 µg/mL | Toxic | Toxic
15 | CC(C)=CCc1c(OCCCC(F)(F)F)cc(/C=C/c2ccc(F)cc2)c(C(=O)O)c1O | 4 µg/mL | 4 µg/mL | 4 µg/mL | 4 µg/mL | 4 µg/mL | 4 µg/mL | 4 µg/mL | 4 µg/mL | 4 µg/mL | 4 µg/mL | 4 µg/mL | 4 µg/mL | > 32 µg/mL | > 32 µg/mL | > 32 µg/mL | Toxic | Toxic
16 | CC(C)=CCc1c(OCCCF)cc(/C=C/c2ccc(F)cc2)c(C(=O)O)c1O | 4 µg/mL | 4 µg/mL | 4 µg/mL | 2 µg/mL | 4 µg/mL | 4 µg/mL | 4 µg/mL | 4 µg/mL | 4 µg/mL | 4 µg/mL | 4 µg/mL | 4 µg/mL | > 32 µg/mL | > 32 µg/mL | > 32 µg/mL | Toxic | Toxic
